{"source": "paper PMC11775380", "about": "“Discovery of Novel Nav1.7-Selective Inhibitors with the 1H-Indole-3-Propionamide Scaffold for Effective Pain Relief” (Research, 2025)", "assay_type_in_all_cases": "cell-based", "key": {"[1]": {"system": "native K+ current (Kv channels) in DRG neurons", "test": "Voltage-clamp recording of native K+ current in DRG neurons", "settings": "10 μM; mouse DRG neurons", "description": "(§1) To investigate the mechanism of action of WN2-R and facilitate animal model experiments, we used voltage-clamp recording to test the effects of WN2-R on the native Na^+-, K^+-, and Ca^2+-mediated currents in DRG neurons. […] Furthermore, the effects of WN2-R on membrane excitability were examined in small (<30 μm) DRG neurons from mice using current-clamp recordings.\n(§2) DRG isolation and culture were performed according to our previous report. Briefly, C57BL/6 mice (weight 18 to 20 g, 6 to 8 weeks) were euthanized via cervical dislocation under anesthesia. Lumbar DRGs were isolated from the L4 to L5 segments of the lumbar spinal cord. The DRG neurons were subsequently dissociated through enzymatic digestion with collagenase (0.32 mg/ml) and trypsin (0.15 mg/ml) at 37 °C for 30 min, with intermittent shaking. After centrifugation at 800 rpm for 5 min at room temperature, the cells were seeded onto poly-L-lysine-coated coverslips and cultured in DMEM (Gibco) supplemented with 10% fetal bovine serum (Gibco). […]\n(§3) For recording Nav currents of DRG neurons, the bath solution contains (in mM) 30 NaCl, 1 MgCl2, 1.8 CaCl2, 5 CsCl, 5 KCl, 25 D-glucose, 5 HEPES, 0.1 CdCl2, and TEA-Cl (pH 7.4 with NaOH), and the pipette solution contains (in mM) 135 CsCl, 10 NaCl, and 5 HEPES (pH 7.4 with CsOH). The Nav current program is recorded following the above method. […]"}, "[2]": {"system": "native Ca2+ current (Cav channels) in DRG neurons", "test": "Voltage-clamp recording of native Ca2+ current in DRG neurons", "settings": "10 μM; mouse DRG neurons", "description": "as §1, §2, §3"}, "[3]": {"biological_target": "T1, hNav1.8 (Homo sapiens, UniProt Q9Y5Y9)", "T1 construct": "expressed in transfected cells; host or cells: ND7/23", "T1 sequence (Q9Y5Y9 whole entry)": "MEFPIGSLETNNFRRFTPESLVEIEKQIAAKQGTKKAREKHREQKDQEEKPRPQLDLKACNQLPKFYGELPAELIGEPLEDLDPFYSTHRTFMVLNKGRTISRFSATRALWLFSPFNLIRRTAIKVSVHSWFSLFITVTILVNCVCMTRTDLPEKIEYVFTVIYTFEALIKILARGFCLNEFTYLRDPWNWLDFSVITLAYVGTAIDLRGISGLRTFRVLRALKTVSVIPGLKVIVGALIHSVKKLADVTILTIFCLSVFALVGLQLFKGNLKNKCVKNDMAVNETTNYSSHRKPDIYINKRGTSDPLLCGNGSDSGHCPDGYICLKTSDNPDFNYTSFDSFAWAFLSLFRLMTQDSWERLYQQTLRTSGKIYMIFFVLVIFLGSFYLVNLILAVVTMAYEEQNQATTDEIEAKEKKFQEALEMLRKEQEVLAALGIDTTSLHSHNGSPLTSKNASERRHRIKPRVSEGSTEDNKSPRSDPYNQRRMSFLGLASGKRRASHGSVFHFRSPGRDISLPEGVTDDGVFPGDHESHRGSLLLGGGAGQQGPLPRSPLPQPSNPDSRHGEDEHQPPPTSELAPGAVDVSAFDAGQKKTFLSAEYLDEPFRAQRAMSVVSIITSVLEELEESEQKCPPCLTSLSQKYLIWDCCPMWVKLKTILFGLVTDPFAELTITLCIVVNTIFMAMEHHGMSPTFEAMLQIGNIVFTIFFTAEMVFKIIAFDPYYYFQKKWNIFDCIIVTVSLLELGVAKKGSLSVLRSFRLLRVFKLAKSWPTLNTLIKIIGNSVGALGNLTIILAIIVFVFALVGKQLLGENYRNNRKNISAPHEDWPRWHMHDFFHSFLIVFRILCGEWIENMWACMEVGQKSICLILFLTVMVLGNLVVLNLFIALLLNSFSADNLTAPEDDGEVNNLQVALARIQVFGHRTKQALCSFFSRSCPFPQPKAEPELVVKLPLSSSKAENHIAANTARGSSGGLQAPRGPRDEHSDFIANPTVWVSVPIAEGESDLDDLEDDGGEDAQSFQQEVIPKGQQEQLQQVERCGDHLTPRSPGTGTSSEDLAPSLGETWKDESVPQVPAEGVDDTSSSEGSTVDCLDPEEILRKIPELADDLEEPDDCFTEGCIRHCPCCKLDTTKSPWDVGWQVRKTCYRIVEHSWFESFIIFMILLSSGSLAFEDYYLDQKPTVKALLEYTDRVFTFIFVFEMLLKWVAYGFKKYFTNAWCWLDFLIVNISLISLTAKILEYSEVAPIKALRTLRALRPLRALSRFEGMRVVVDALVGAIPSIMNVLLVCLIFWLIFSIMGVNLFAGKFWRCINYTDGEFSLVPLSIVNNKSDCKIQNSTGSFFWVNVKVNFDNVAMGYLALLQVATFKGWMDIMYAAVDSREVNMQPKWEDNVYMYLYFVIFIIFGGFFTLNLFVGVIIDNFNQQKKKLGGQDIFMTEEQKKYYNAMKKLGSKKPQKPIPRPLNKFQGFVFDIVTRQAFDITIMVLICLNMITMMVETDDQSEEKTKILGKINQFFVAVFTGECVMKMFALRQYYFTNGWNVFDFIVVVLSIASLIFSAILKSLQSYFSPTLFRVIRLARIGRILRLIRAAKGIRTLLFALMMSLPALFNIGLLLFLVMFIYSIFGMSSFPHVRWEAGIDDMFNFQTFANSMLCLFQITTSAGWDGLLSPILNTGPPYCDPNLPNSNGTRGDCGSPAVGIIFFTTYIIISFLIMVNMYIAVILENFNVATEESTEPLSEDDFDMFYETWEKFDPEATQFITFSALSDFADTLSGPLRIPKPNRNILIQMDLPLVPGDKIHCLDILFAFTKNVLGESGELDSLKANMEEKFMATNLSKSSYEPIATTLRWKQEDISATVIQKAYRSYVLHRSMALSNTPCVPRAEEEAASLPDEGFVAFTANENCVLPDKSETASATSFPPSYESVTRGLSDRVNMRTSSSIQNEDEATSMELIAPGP", "test": "Subtype selectivity, patch clamp (ND7/23 cells)", "settings": "1 μM", "description": "VGSC inhibitors required credible subtype selectivity to void side effects caused by binding to nontarget subtypes. At a concentration of 1 μM, the inhibitory rates of WN2-R on hNav1.2, hNav1.3, hNav1.4, hNav1.5, mNav1.6, and hNav1.8 were determined (n = 3 to 6, Fig. 7A). […] To further evaluate the drug safety profile, high-dose acute toxicity experiments were conducted. Mice were administered a high dose of 30 mg/kg WN2-R through i.p. administration. The rotarod test, forced-swim test, and open field test were used to explore the effect of high-dose WN2-R on the motor ability of mice (n = 4). The rotarod test evaluated the drug's effect on motor coordination, the forced-swim test examined its impact on the overall motor system, and the open field test assessed the drug's influence on the motor and nervous systems. […]\nWhole-cell patch-clamp recordings were conducted at 25 ± 2 °C, utilizing an EPC 10USB patch-clamp amplifier (HEKA Elektronik, Lambrecht, Germany). […] IC50 values were determined in HEK293T or ND7/23 cell lines by voltage clamping at −80 mV, followed by stepping to the V1/2 of inactivation for 8 s to facilitate compound binding."}}}
{"smiles": "Cc1ccc(Cn2cc([C@H](CC(=O)NCCN(C)C)c3ccc(F)cc3)c3ccccc32)cc1", "note": "[WN2-R]", "values": [{"measurement": "Effect on native K+ current", "setting": "[1]", "value": "almost no effect"}, {"measurement": "Effect on native Ca2+ current", "setting": "[2]", "value": "almost no effect"}, {"measurement": "Inhibitory rate on hNav1.8", "setting": "[3]", "value": "much lower than that on Nav1.7"}]}
